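Five concentrations, 48 hours, 96-well plates. At the TGI there is no net growth.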
What follows are compounds tested on A498 renal (assay: NCI anticancer screen, dose series, 48 h).

Structure (SMILES) | TGI [µM]
O=C(OCc1ccccc1)C(Cc1ccccc1)N(Cc1ccccc1)Cc1ccccc1 (stereo unspecified) | > 100
O=[N+]([O-])c1ccc(C2=Nc3ccccc3SC(c3ccccc3)C2)cc1 (stereo unspecified) | 47.9
CCCCC#CS(=O)(=O)C(F)(F)F | > 100
O=C(c1ccco1)C1CC(c2c(O)ccc3ccccc23)=NN1 (stereo unspecified) | 40.4
CC1(C)OC2CC(=O)OCC23C1CC(=O)C1(C)C3CCC2(C)C(c3ccoc3)OC(=O)C3OC321 (stereo unspecified) | > 125

Each compound was assayed on OVCAR-8 ovarian (assay: NCI anticancer screen, dose series, 48 h).

Structure (SMILES) | TGI [µM]
O=C(OCc1ccccc1)C(Cc1ccccc1)N(Cc1ccccc1)Cc1ccccc1 (stereo unspecified) | > 100
O=[N+]([O-])c1ccc(C2=Nc3ccccc3SC(c3ccccc3)C2)cc1 (stereo unspecified) | 40.3
CCCCC#CS(=O)(=O)C(F)(F)F | > 100
O=C(c1ccco1)C1CC(c2c(O)ccc3ccccc23)=NN1 (stereo unspecified) | 51.5
CC1(C)OC2CC(=O)OCC23C1CC(=O)C1(C)C3CCC2(C)C(c3ccoc3)OC(=O)C3OC321 (stereo unspecified) | 7.03

The compounds below were run on SNB-75 CNS (assay: NCI anticancer screen, dose series, 48 h).

Structure (SMILES) | TGI [µM]
O=C(OCc1ccccc1)C(Cc1ccccc1)N(Cc1ccccc1)Cc1ccccc1 (stereo unspecified) | > 100
O=[N+]([O-])c1ccc(C2=Nc3ccccc3SC(c3ccccc3)C2)cc1 (stereo unspecified) | 37.1
CCCCC#CS(=O)(=O)C(F)(F)F | 98.3
O=C(c1ccco1)C1CC(c2c(O)ccc3ccccc23)=NN1 (stereo unspecified) | 33.6
CC1(C)OC2CC(=O)OCC23C1CC(=O)C1(C)C3CCC2(C)C(c3ccoc3)OC(=O)C3OC321 (stereo unspecified) | > 109

The compounds below were run on HOP-92 NSCLC (assay: NCI anticancer screen, dose series, 48 h).

Structure (SMILES) | TGI [µM]
O=C(OCc1ccccc1)C(Cc1ccccc1)N(Cc1ccccc1)Cc1ccccc1 (stereo unspecified) | > 100
CCCCC#CS(=O)(=O)C(F)(F)F | > 84.4
O=C(c1ccco1)C1CC(c2c(O)ccc3ccccc23)=NN1 (stereo unspecified) | 37.4

The compounds below were run on CAKI-1 renal (assay: NCI anticancer screen, dose series, 48 h).

Structure (SMILES) | TGI [µM]
O=C(OCc1ccccc1)C(Cc1ccccc1)N(Cc1ccccc1)Cc1ccccc1 (stereo unspecified) | > 100
O=[N+]([O-])c1ccc(C2=Nc3ccccc3SC(c3ccccc3)C2)cc1 (stereo unspecified) | 35.8
CCCCC#CS(=O)(=O)C(F)(F)F | > 100
O=C(c1ccco1)C1CC(c2c(O)ccc3ccccc23)=NN1 (stereo unspecified) | 38.8
CC1(C)OC2CC(=O)OCC23C1CC(=O)C1(C)C3CCC2(C)C(c3ccoc3)OC(=O)C3OC321 (stereo unspecified) | > 125

Each compound was assayed on SF-295 CNS (assay: NCI anticancer screen, dose series, 48 h).

Structure (SMILES) | TGI [µM]
O=C(OCc1ccccc1)C(Cc1ccccc1)N(Cc1ccccc1)Cc1ccccc1 (stereo unspecified) | > 100
O=[N+]([O-])c1ccc(C2=Nc3ccccc3SC(c3ccccc3)C2)cc1 (stereo unspecified) | 46.3
CCCCC#CS(=O)(=O)C(F)(F)F | > 100
O=C(c1ccco1)C1CC(c2c(O)ccc3ccccc23)=NN1 (stereo unspecified) | 23.3
CC1(C)OC2CC(=O)OCC23C1CC(=O)C1(C)C3CCC2(C)C(c3ccoc3)OC(=O)C3OC321 (stereo unspecified) | > 125

These compounds were tested on LOX IMVI melanoma (assay: NCI anticancer screen, dose series, 48 h).

Structure (SMILES) | TGI [µM]
O=[N+]([O-])c1ccc(C2=Nc3ccccc3SC(c3ccccc3)C2)cc1 (stereo unspecified) | 29.3
CCCCC#CS(=O)(=O)C(F)(F)F | > 100
CC1(C)OC2CC(=O)OCC23C1CC(=O)C1(C)C3CCC2(C)C(c3ccoc3)OC(=O)C3OC321 (stereo unspecified) | > 125

What follows are compounds tested on MOLT-4 leukemia (assay: NCI anticancer screen, dose series, 48 h).

Structure (SMILES) | TGI [µM]
O=C(OCc1ccccc1)C(Cc1ccccc1)N(Cc1ccccc1)Cc1ccccc1 (stereo unspecified) | > 100
O=[N+]([O-])c1ccc(C2=Nc3ccccc3SC(c3ccccc3)C2)cc1 (stereo unspecified) | > 100
CCCCC#CS(=O)(=O)C(F)(F)F | > 100
O=C(c1ccco1)C1CC(c2c(O)ccc3ccccc23)=NN1 (stereo unspecified) | 42.7
CC1(C)OC2CC(=O)OCC23C1CC(=O)C1(C)C3CCC2(C)C(c3ccoc3)OC(=O)C3OC321 (stereo unspecified) | > 125

These compounds were tested on EKVX NSCLC (assay: NCI anticancer screen, dose series, 48 h).

Structure (SMILES) | TGI [µM]
O=C(OCc1ccccc1)C(Cc1ccccc1)N(Cc1ccccc1)Cc1ccccc1 (stereo unspecified) | > 100
O=[N+]([O-])c1ccc(C2=Nc3ccccc3SC(c3ccccc3)C2)cc1 (stereo unspecified) | 44.3
CCCCC#CS(=O)(=O)C(F)(F)F | > 100
O=C(c1ccco1)C1CC(c2c(O)ccc3ccccc23)=NN1 (stereo unspecified) | 32.4
CC1(C)OC2CC(=O)OCC23C1CC(=O)C1(C)C3CCC2(C)C(c3ccoc3)OC(=O)C3OC321 (stereo unspecified) | > 58

These compounds were tested on NCI/ADR-RES ovarian (assay: NCI anticancer screen, dose series, 48 h).

Structure (SMILES) | TGI [µM]
CCCCC#CS(=O)(=O)C(F)(F)F | > 100
O=C(c1ccco1)C1CC(c2c(O)ccc3ccccc23)=NN1 (stereo unspecified) | 51.1
CC1(C)OC2CC(=O)OCC23C1CC(=O)C1(C)C3CCC2(C)C(c3ccoc3)OC(=O)C3OC321 (stereo unspecified) | > 125

The compounds below were run on SF-268 CNS (assay: NCI anticancer screen, dose series, 48 h).

Structure (SMILES) | TGI [µM]
O=C(OCc1ccccc1)C(Cc1ccccc1)N(Cc1ccccc1)Cc1ccccc1 (stereo unspecified) | > 100
O=[N+]([O-])c1ccc(C2=Nc3ccccc3SC(c3ccccc3)C2)cc1 (stereo unspecified) | 63.3
CCCCC#CS(=O)(=O)C(F)(F)F | > 100
O=C(c1ccco1)C1CC(c2c(O)ccc3ccccc23)=NN1 (stereo unspecified) | 30.2
CC1(C)OC2CC(=O)OCC23C1CC(=O)C1(C)C3CCC2(C)C(c3ccoc3)OC(=O)C3OC321 (stereo unspecified) | > 125

Each compound was assayed on SK-MEL-28 melanoma (assay: NCI anticancer screen, dose series, 48 h).

Structure (SMILES) | TGI [µM]
O=C(OCc1ccccc1)C(Cc1ccccc1)N(Cc1ccccc1)Cc1ccccc1 (stereo unspecified) | > 100
O=[N+]([O-])c1ccc(C2=Nc3ccccc3SC(c3ccccc3)C2)cc1 (stereo unspecified) | 41.6
CCCCC#CS(=O)(=O)C(F)(F)F | > 100
O=C(c1ccco1)C1CC(c2c(O)ccc3ccccc23)=NN1 (stereo unspecified) | 47.8
CC1(C)OC2CC(=O)OCC23C1CC(=O)C1(C)C3CCC2(C)C(c3ccoc3)OC(=O)C3OC321 (stereo unspecified) | > 125

Each compound was assayed on SN12C renal (assay: NCI anticancer screen, dose series, 48 h).

Structure (SMILES) | TGI [µM]
O=C(OCc1ccccc1)C(Cc1ccccc1)N(Cc1ccccc1)Cc1ccccc1 (stereo unspecified) | > 100
O=[N+]([O-])c1ccc(C2=Nc3ccccc3SC(c3ccccc3)C2)cc1 (stereo unspecified) | 32.2
CCCCC#CS(=O)(=O)C(F)(F)F | > 100
O=C(c1ccco1)C1CC(c2c(O)ccc3ccccc23)=NN1 (stereo unspecified) | 46
CC1(C)OC2CC(=O)OCC23C1CC(=O)C1(C)C3CCC2(C)C(c3ccoc3)OC(=O)C3OC321 (stereo unspecified) | > 39.5

Each compound was assayed on OVCAR-4 ovarian (assay: NCI anticancer screen, dose series, 48 h).

Structure (SMILES) | TGI [µM]
O=C(OCc1ccccc1)C(Cc1ccccc1)N(Cc1ccccc1)Cc1ccccc1 (stereo unspecified) | > 100
O=[N+]([O-])c1ccc(C2=Nc3ccccc3SC(c3ccccc3)C2)cc1 (stereo unspecified) | 27.3
CCCCC#CS(=O)(=O)C(F)(F)F | 98.9
O=C(c1ccco1)C1CC(c2c(O)ccc3ccccc23)=NN1 (stereo unspecified) | > 100
CC1(C)OC2CC(=O)OCC23C1CC(=O)C1(C)C3CCC2(C)C(c3ccoc3)OC(=O)C3OC321 (stereo unspecified) | > 125

What follows are compounds tested on UACC-257 melanoma (assay: NCI anticancer screen, dose series, 48 h).

Structure (SMILES) | TGI [µM]
O=C(OCc1ccccc1)C(Cc1ccccc1)N(Cc1ccccc1)Cc1ccccc1 (stereo unspecified) | > 100
O=[N+]([O-])c1ccc(C2=Nc3ccccc3SC(c3ccccc3)C2)cc1 (stereo unspecified) | 51.6
CCCCC#CS(=O)(=O)C(F)(F)F | > 100
O=C(c1ccco1)C1CC(c2c(O)ccc3ccccc23)=NN1 (stereo unspecified) | 57.9
CC1(C)OC2CC(=O)OCC23C1CC(=O)C1(C)C3CCC2(C)C(c3ccoc3)OC(=O)C3OC321 (stereo unspecified) | > 125

These compounds were tested on NCI-H460 lung (assay: NCI anticancer screen, dose series, 48 h).

Structure (SMILES) | TGI [µM]
O=C(OCc1ccccc1)C(Cc1ccccc1)N(Cc1ccccc1)Cc1ccccc1 (stereo unspecified) | > 100
O=[N+]([O-])c1ccc(C2=Nc3ccccc3SC(c3ccccc3)C2)cc1 (stereo unspecified) | 43.9
CCCCC#CS(=O)(=O)C(F)(F)F | > 100
O=C(c1ccco1)C1CC(c2c(O)ccc3ccccc23)=NN1 (stereo unspecified) | 19.9
CC1(C)OC2CC(=O)OCC23C1CC(=O)C1(C)C3CCC2(C)C(c3ccoc3)OC(=O)C3OC321 (stereo unspecified) | > 125

These compounds were tested on CCRF-CEM leukemia (assay: NCI anticancer screen, dose series, 48 h).

Structure (SMILES) | TGI [µM]
O=C(OCc1ccccc1)C(Cc1ccccc1)N(Cc1ccccc1)Cc1ccccc1 (stereo unspecified) | > 100
O=[N+]([O-])c1ccc(C2=Nc3ccccc3SC(c3ccccc3)C2)cc1 (stereo unspecified) | 37.2
CCCCC#CS(=O)(=O)C(F)(F)F | > 100
O=C(c1ccco1)C1CC(c2c(O)ccc3ccccc23)=NN1 (stereo unspecified) | 93
CC1(C)OC2CC(=O)OCC23C1CC(=O)C1(C)C3CCC2(C)C(c3ccoc3)OC(=O)C3OC321 (stereo unspecified) | > 125

These compounds were tested on M19-MEL melanoma (assay: NCI anticancer screen, dose series, 48 h).

Structure (SMILES) | TGI [µM]
O=C(OCc1ccccc1)C(Cc1ccccc1)N(Cc1ccccc1)Cc1ccccc1 (stereo unspecified) | > 100
O=[N+]([O-])c1ccc(C2=Nc3ccccc3SC(c3ccccc3)C2)cc1 (stereo unspecified) | 31
CC1(C)OC2CC(=O)OCC23C1CC(=O)C1(C)C3CCC2(C)C(c3ccoc3)OC(=O)C3OC321 (stereo unspecified) | > 125

The compounds below were run on DMS 273 small cell lung (assay: NCI anticancer screen, dose series, 48 h).

Structure (SMILES) | TGI [µM]
O=C(OCc1ccccc1)C(Cc1ccccc1)N(Cc1ccccc1)Cc1ccccc1 (stereo unspecified) | > 100
O=[N+]([O-])c1ccc(C2=Nc3ccccc3SC(c3ccccc3)C2)cc1 (stereo unspecified) | 27.5
CCCCC#CS(=O)(=O)C(F)(F)F | > 100
CC1(C)OC2CC(=O)OCC23C1CC(=O)C1(C)C3CCC2(C)C(c3ccoc3)OC(=O)C3OC321 (stereo unspecified) | > 125

What follows are compounds tested on HCC-2998 colon (assay: NCI anticancer screen, dose series, 48 h).

Structure (SMILES) | TGI [µM]
O=C(OCc1ccccc1)C(Cc1ccccc1)N(Cc1ccccc1)Cc1ccccc1 (stereo unspecified) | > 100
O=[N+]([O-])c1ccc(C2=Nc3ccccc3SC(c3ccccc3)C2)cc1 (stereo unspecified) | 29
CCCCC#CS(=O)(=O)C(F)(F)F | > 31.6
O=C(c1ccco1)C1CC(c2c(O)ccc3ccccc23)=NN1 (stereo unspecified) | 25.7
CC1(C)OC2CC(=O)OCC23C1CC(=O)C1(C)C3CCC2(C)C(c3ccoc3)OC(=O)C3OC321 (stereo unspecified) | > 125

— PubChem BioAssay (NCI)
